Laboratory results reported in patent US20020076412A1, “METHODS FOR MODULATING THE IMMUNE SYSTEM” (priority 1987, published 2002).
Several values for one entry are separate records, joined by “and”; a condition that tells them apart may be missing. Equal entries are not always repeated. Entries after “also recorded” stand apart in the source; their conditions may differ. Values belong to the molecule of their own block, whether it stands above or below them.

Columns and labels:
EAE (RAT) [1] = assay: Ability of peptide mixed in CFA to cause EAE; type: in vivo; conditions: rats with EAE / rats immunized with the peptide alone in CFA
Description: (§1) The peptides were tested for their ability to cause EAE when mixed in CFA. […] It was seen that Ala4, Ala6, Ala7, and Ala8 are poor binders to I-E, implying that these residues 4F,6N,7I, and 8V are critical in MHC binding. […] Despite their inability to bind well to I-E, peptides ala6 and ala8 block the development of EAE when mixed with native peptide in a 5:1 molar ratio with CFA (0/6 sick with native plus ala6, 2/6 with native plus ala8, compared to 11/12 with native peptide alone). These competitor peptides Ala6 and Ala8, though poor I-E binders can apparently compete with native peptide and antagonize the T-cell receptor.

I-E = assay: MHC I-E binding of substituted MBP 87-99 peptides; design: species or system rat; conditions: for IC50: read-out: (M*C) IC50 I-E Binding
Source text: A set of substituted peptides based on the sequence VHFFKNIVTPRT (Seq. ID No. 39), which is identical in rats, mice and human myelin basic protein (MBP), and corresponds to the I-E restricted epitope MBP 87-99 in the rat was produced. The peptides are shown in Table 1 (Seq. ID Nos. 39 to 52 respectively) MHC binding was measure say described in Smilek et al, 1991, Gautam et al 1992a&b.

87-99 T-cell line [2] = assay: Proliferation of encephalitogenic T-cell line raised against native peptide (87-99); type: cell-based, rat; conditions: stimulation of T-cell line raised against native 87-99, grades negative to 4+
Description: As noted above, candidate peptide analogues are first tested for their property of causing or inhibiting proliferation of T-cell lines. In the proliferation assay, MBP reactive T-cell lines may be used as target cells. T-cell lines are established from lymph nodes taken from rats injected with MBP. Lymph node cells are isolated and cultured for 5 to 8 days with MBP and IL-2 as a source of T-cell growth factors. Viable cells are recovered and a second round of stimulation is performed with MBP and irradiated splenocytes as a source of growth factors. After 5 to 6 passages in this manner, the proliferative potential of the cell lines are determined. MBP-reactive lines are used in the proliferation assay. In this assay, T-cell lines are cultured for three days with various concentrations of peptide analogues and irradiated, autologous splenocytes. After three days, 0.5-1.0 μCi of [^3H]-thymidine is added for 12-16 hours. Cultures are harvested and incorporated counts determined. Mean CPM and standard error of the mean are calculated from triplicate cultures.
Development of MBP-specific T-cell lines in the rat: T-cell lines are selected from LN or SC (spinal cords) of rats immunized with guinea pig myelin basic protein or with MBP peptide (200 μg) in CFA. Supernatants from ConA-stimulated Lewis rat splenocytes are used as the source of IL-2 to expand Ag-stimulated T-cells.
(§2) Proliferation Assay: Proliferative responses were determined as described previously (Zamvil, et al., Nature 317:355, 1985). 1×10^4 T-cells were cultured with 5×10^5 X-irradiated (3,000 rad) PL/J splenic APC in 0.2 ml of culture media in 96 well flat-bottomed microtiter plates (Falcon, 3072). Peptides were added to culture giving the final concentrations indicated. At 48 hours incubation, each well was pulsed with 1 μCi ^3H-thymidine and harvested 16 hours later. The mean c.p.m. thymidine incorporation was calculated for triplicate cultures. Standard deviations from replicate cultures were within 10% mean value. Proliferation assays were performed in 96-well microtiter plates. Briefly, 2×10^4 T-cells and 10^6 irradiated thymocytes/well were incubated with stimulation medium only, Con A, or antigen. The cultures were harvested onto glass fiber filters and TdR uptake was assessed by liquid scintillation. Mean cpm were calculated from triplicate wells. In some experiments, competitor peptides, or anti I-A (OX-6) or anti-I-E antibodies (OX-17) were used to evaluate which MHC molecules were used to restrict the T-cell response, or to determine whether peptides could antagonize stimulation by the native peptide.

EAE = assay: Competition with Ala6 and Ala5 for prevention of EAE with MBP (Table 3); type: in vivo, mice
Description: Incidence of EAE was expressed as number of mice with clinical EAE/number of mice immunized. For the induction of EAE, MBP peptide was dissolved in phosphate buffered saline (PBS) and emulsified with complete Freund's adjuvant (CFA) in a 1:1 mixture of PBS and CFA. Mice were injected with 0.2 ml emulsion at the base of the tail. On the same day and 48 h later, pertussis toxin (List Chemicals, Campbell, Calif.) was injected intravenously. Mice were examined daily for signs of EAE. For prevention of EAE, animals were immunized with MBP (0.2 mg), or in a mixture with the competitor peptide (1 mg).

EAE (RAT) [3] = assay: Prevention of EAE, competitor mixed with native peptide 5:1 in CFA; type: in vivo; conditions: sick/total; competitor plus native peptide 5:1 molar ratio in CFA; native line = native peptide alone
Description: as §1

87-99 T-cell line [4] = assay: Competition assay for T-cell proliferation with native peptide; type: cell-based, Lewis rat; conditions: blocking of proliferation of 87-99 T-cell line when given with native peptide in vitro
Description: The second assay is a competition assay for T-cell proliferation. In this assay, antigen presenting spleen cells are first irradiated and then incubated with native MBP peptide for 2-4 hours. These cells are then washed and further cultured with T-cells reactive to MBP. Various concentrations of candidate peptide analogues are included in cultures for an additional 3 days. Following this incubation period, each culture is pulsed with 1 μCi of [^3H]-thymidine for an additional 12-18 hours. Cultures are then harvested on fiberglass filters and counted as above. Mean CPM and standard error of the mean are calculated from data determined in triplicate cultures. Peptide analogues which inhibit proliferation to approximately 25% at a concentration of 50 μM or greater are suitable for further screening.
as §2, §1

[5] = native MBP peptide 0.2 mg mixed with competitor peptide 1 mg
[6] = peptide alone 0.2 mg in CFA, number with clinical EAE/number immunized

SMILES: CC[C@H](C)[C@H](NC(=O)[C@H](CC(N)=O)NC(=O)[C@H](CCCCN)NC(=O)[C@H](Cc1ccccc1)NC(=O)[C@H](Cc1ccccc1)NC(=O)[C@H](Cc1c[nH]cn1)NC(=O)[C@H](C)N)C(=O)N[C@H](C(=O)N[C@H](C(=O)N1CCC[C@H]1C(=O)N[C@@H](CCCNC(=N)N)C(=O)N[C@H](C(=O)N1CCC[C@H]1C(=O)O)[C@@H](C)O)[C@@H](C)O)C(C)C [Ala 1]
EAE (RAT) (EAE (RAT) [1]): 6/6

SMILES: CC[C@H](C)[C@H](NC(=O)[C@H](CC(N)=O)NC(=O)[C@H](CCCCN)NC(=O)[C@H](Cc1ccccc1)NC(=O)[C@H](Cc1ccccc1)NC(=O)[C@H](C)NC(=O)[C@@H](N)C(C)C)C(=O)N[C@H](C(=O)N[C@H](C(=O)N1CCC[C@H]1C(=O)N[C@@H](CCCNC(=N)N)C(=O)N[C@H](C(=O)N1CCC[C@H]1C(=O)O)[C@@H](C)O)[C@@H](C)O)C(C)C [Ala 2]
EAE (RAT) (EAE (RAT) [1]): 6/6

SMILES: CC[C@H](C)[C@H](NC(=O)[C@H](CC(N)=O)NC(=O)[C@H](CCCCN)NC(=O)[C@H](Cc1ccccc1)NC(=O)[C@H](C)NC(=O)[C@H](Cc1c[nH]cn1)NC(=O)[C@@H](N)C(C)C)C(=O)N[C@H](C(=O)N[C@H](C(=O)N1CCC[C@H]1C(=O)N[C@@H](CCCNC(=N)N)C(=O)N[C@H](C(=O)N1CCC[C@H]1C(=O)O)[C@@H](C)O)[C@@H](C)O)C(C)C [Ala 3]
EAE (RAT) (EAE (RAT) [1]): 6/6

binding to I-E / MHC (in words) (I-E): poor binders
IC50 (I-E): > 200 µM
SMILES: CC[C@H](C)[C@H](NC(=O)[C@H](CC(N)=O)NC(=O)[C@H](CCCCN)NC(=O)[C@H](C)NC(=O)[C@H](Cc1ccccc1)NC(=O)[C@H](Cc1c[nH]cn1)NC(=O)[C@@H](N)C(C)C)C(=O)N[C@H](C(=O)N[C@H](C(=O)N1CCC[C@H]1C(=O)N[C@@H](CCCNC(=N)N)C(=O)N[C@H](C(=O)N1CCC[C@H]1C(=O)O)[C@@H](C)O)[C@@H](C)O)C(C)C [Ala 4]
EAE (RAT) (EAE (RAT) [1]): 0/6
EAE (RAT) (EAE (RAT) [1]; listed as Ala4): incapable of causing EAE; also recorded: does not cause EAE
Prolif. (87-99 T-cell line [2]; no key printed): negative
Prolif. (87-99 T-cell line [2]; no key printed, listed as Ala4): does not stimulate

SMILES: CC[C@H](C)[C@H](NC(=O)[C@H](CC(N)=O)NC(=O)[C@H](C)NC(=O)[C@H](Cc1ccccc1)NC(=O)[C@H](Cc1ccccc1)NC(=O)[C@H](Cc1c[nH]cn1)NC(=O)[C@@H](N)C(C)C)C(=O)N[C@H](C(=O)N[C@H](C(=O)N1CCC[C@H]1C(=O)N[C@@H](CCCNC(=N)N)C(=O)N[C@H](C(=O)N1CCC[C@H]1C(=O)O)[C@@H](C)O)[C@@H](C)O)C(C)C [Ala 5]
EAE (RAT) (EAE (RAT) [1]): 0/6
EAE (RAT) (EAE (RAT) [1]; listed as Ala5): incapable of causing EAE
Incidence of EAE (EAE; [5]): had a preventative effect on EAE
Incidence of EAE (EAE; native MBP peptide 0.2 mg mixed with competitor peptide 1 mg, listed as ala 5): 2/6
Incidence of EAE (EAE; [6]): 0/6
Prolif. (87-99 T-cell line [2]; no key printed): negative

IC50 (I-E): > 200 µM
SMILES: CC[C@H](C)[C@H](NC(=O)[C@H](C)NC(=O)[C@H](CCCCN)NC(=O)[C@H](Cc1ccccc1)NC(=O)[C@H](Cc1ccccc1)NC(=O)[C@H](Cc1c[nH]cn1)NC(=O)[C@@H](N)C(C)C)C(=O)N[C@H](C(=O)N[C@H](C(=O)N1CCC[C@H]1C(=O)N[C@@H](CCCNC(=N)N)C(=O)N[C@H](C(=O)N1CCC[C@H]1C(=O)O)[C@@H](C)O)[C@@H](C)O)C(C)C [Ala 6]
EAE (RAT) (EAE (RAT) [3]): 0/6
binding to I-E / MHC (in words) (I-E): poor binders; also recorded: poor MHC binder
Comp Assay Prolif (RAT) (87-99 T-cell line [4]): plus
Comp Assay Prolif (RAT) (87-99 T-cell line [4]; listed as Ala6): can block proliferation
EAE (RAT) (EAE (RAT) [1]): 0/21
EAE (RAT) (EAE (RAT) [1]; listed as Ala6): incapable of causing EAE
Incidence of EAE (EAE; [5]): completely prevented the clinical development of EAE
Incidence of EAE (EAE; native MBP peptide 0.2 mg mixed with competitor peptide 1 mg, listed as ala 6): 0/6
Incidence of EAE (EAE; [6]): 0/6
Prolif. (87-99 T-cell line [2]; key not given): weakly stimulate

SMILES: CC[C@H](C)[C@H](NC(=O)[C@H](CC(N)=O)NC(=O)[C@H](CCCCN)NC(=O)[C@H](Cc1ccccc1)NC(=O)[C@H](Cc1ccccc1)NC(=O)[C@H](Cc1c[nH]cn1)NC(=O)[C@@H](N)C(C)C)C(=O)N[C@H](C(=O)N[C@@H](C)C(=O)N1CCC[C@H]1C(=O)N[C@@H](CCCNC(=N)N)C(=O)N[C@H](C(=O)N1CCC[C@H]1C(=O)O)[C@@H](C)O)C(C)C [Ala 9]
EAE (RAT) (EAE (RAT) [1]): 1/6
EAE (RAT) (EAE (RAT) [1]; listed as Ala9): 1/6 and nonencephalitogenic
Prolif. (87-99 T-cell line [2]; no key printed): negative
Prolif. (87-99 T-cell line [2]; no key printed, listed as Ala9): weak stimulators

SMILES: CC[C@H](C)[C@H](NC(=O)[C@H](CC(N)=O)NC(=O)[C@H](CCCCN)NC(=O)[C@H](Cc1ccccc1)NC(=O)[C@H](Cc1ccccc1)NC(=O)[C@H](Cc1c[nH]cn1)NC(=O)[C@@H](N)C(C)C)C(=O)N[C@H](C(=O)N[C@H](C(=O)N[C@@H](C)C(=O)N[C@@H](CCCNC(=N)N)C(=O)N[C@H](C(=O)N1CCC[C@H]1C(=O)O)[C@@H](C)O)[C@@H](C)O)C(C)C [Ala 10]
EAE (RAT) (EAE (RAT) [1]): incapable of causing EAE and nonencephalitogenic and 0/6

IC50 (I-E): 20 µM
SMILES: CC[C@H](C)[C@H](NC(=O)[C@H](CC(N)=O)NC(=O)[C@H](CCCCN)NC(=O)[C@H](Cc1ccccc1)NC(=O)[C@H](Cc1ccccc1)NC(=O)[C@H](Cc1c[nH]cn1)NC(=O)[C@@H](N)C(C)C)C(=O)N[C@H](C(=O)N[C@H](C(=O)N1CCC[C@H]1C(=O)N[C@@H](C)C(=O)N[C@H](C(=O)N1CCC[C@H]1C(=O)O)[C@@H](C)O)[C@@H](C)O)C(C)C [Ala 11]
EAE (RAT) (EAE (RAT) [1]): 4/6
Prolif. (87-99 T-cell line [2]; no key printed): negative

SMILES: CC[C@H](C)[C@H](NC(=O)[C@H](CC(N)=O)NC(=O)[C@H](CCCCN)NC(=O)[C@H](Cc1ccccc1)NC(=O)[C@H](Cc1ccccc1)NC(=O)[C@H](Cc1c[nH]cn1)NC(=O)[C@@H](N)C(C)C)C(=O)N[C@H](C(=O)N[C@H](C(=O)N1CCC[C@H]1C(=O)N[C@@H](CCCNC(=N)N)C(=O)N[C@@H](C)C(=O)N1CCC[C@H]1C(=O)O)[C@@H](C)O)C(C)C [Ala 12]
EAE (RAT) (EAE (RAT) [1]): 6/6

IC50 (I-E): 10 µM
SMILES: CC[C@H](C)[C@H](NC(=O)[C@H](CC(N)=O)NC(=O)[C@H](CCCCN)NC(=O)[C@H](Cc1ccccc1)NC(=O)[C@H](Cc1ccccc1)NC(=O)[C@H](Cc1c[nH]cn1)NC(=O)[C@@H](N)C(C)C)C(=O)N[C@H](C(=O)N[C@H](C(=O)N1CCC[C@H]1C(=O)N[C@@H](CCCNC(=N)N)C(=O)N[C@H](C(=O)N[C@@H](C)C(=O)O)[C@@H](C)O)[C@@H](C)O)C(C)C [Ala 13]
EAE (RAT) (EAE (RAT) [1]): 3/6
